Where “and” joins values, the source holds several entries; their conditions need not be identical. Equal values may be shown once.
Columns and labels:
rat submandibular gland = experiment: Cationic liposome-mediated hGH gene delivery to rat submandibular gland; type: in vivo; parameters: human growth hormone protein expression, Trial 1 to Trial 8: unit not given here; conditions: for human growth hormone protein expression, Average / human growth hormone protein expression, Trial 1 to Trial 8: one week post-administration; for human growth hormone protein expression, Trial 1 to Trial 8: individual glands, DOHBD:DOPE liposome, 175 micrograms pCMV.FOX.hGH per gland, listed as Zn
Protocol: In embodiments in which a liposome/transition metal/nucleic acid mixture was used, 200 μl of the liposome/transition metal/nucleic acid mixture was injected, infused, instilled or administered at the ductal orifice or directly into the duct at any point along its length. See Goldfine, Nature Biotechnology 15:1378, 1997. The liposome/transition metal/nucleic acid mixture was prepared by sequentially adding an appropriate amount of sterile water, liposome solution (3:1, N,N,N′,N′-tetramethyl-N,N′-bis(2-hydroxyethyl)-2,3-bis(9(z)-octadecenoyloxy)-1,4-butanediaminium iodide (DOHBD):DOPE), transition metal enhancer, and the plasmid DNA pCMV.FOX.hGH to a polypropylene tube.
Regardless of whether a liposome/transition metal/nucleic acid mixture or a nucleic acid/transition metal enhancer mixture was delivered, the tubing and mixture was kept in place for ten additional minutes after application of the mixture prior to removal. At 48 hours post atropine administration, the rats were anesthetized by intraperitoneal injection of pentobarbital (50 mg/kg). The right and left submandibular glands were surgically removed, and the tissues were assayed for any observable reporter gene (luciferase of hGH) expression using the methods described below.
In one embodiment, an appropriate mass of cationic lipid and the neutral lipid dioleoylphosphatidylethanolamine (DOPE) was added as solutions in chloroform to 1.9 mL sample vials to yield the desired molar ratio of cationic lipid:DOPE. The chloroform was removed via rotary evaporation at 37° C. The resulting thin lipid films were placed under vacuum overnight to insure that all traces of solvent have been removed. The lipid mixture was resuspended in 1 mL sterile water at 25° C. until the film is hydrated, and then vortex mixed to afford an emulsion. For the in vitro experiments, these emulsions were formulated as a cationic lipid concentration of 1 mM. For the in vivo experiments, the emulsions were formulated at a cationic lipid concentration of 3 mM.
To perform this study, cationic lipid/nucleic acid/zinc mixtures were prepared by mixing the appropriate amount of sterile water, cationic liposomes, zinc chloride and pCMV.FOX.hGH plasmid DNA in a polystyrene tube. Specifically, 40 microliters of a 3 mM 3:1 DOHBD:DOPE liposome mixture, 270 microliters of a 8.08 microgram/microliter pCMV.FOX.hGH plasmid DNA mixture, and an appropriate amount of a 70 mM zinc chloride mixture were added to a polystyrene tube containing a sufficient amount of water to give a final total volume of 2500 microliters. In this experiment, the final zinc chloride concentration was either 0.125 mM, 0.250 mM, or no zinc at all. The cationic lipid:DNA phosphate ratio in this study remained constant for all mixtures screened. Once prepared, 200 microliters of each mixture was instilled into the right and left submandibular glands of four male Sprague-Dawley rats. Thus, 175 micrograms of the plasmid DNA was instilled into each gland. After one week post-administration of the cationic lipid/nucleic acid/zinc mixtures, the salivary gland of the rats were extracted, mixed with a phosphate lysis buffer (10 mM, pH 8.0) and homogenized. The homogenate was then assayed for human growth hormone protein expression. […]

rat pancreas = experiment: Intraductal transfection of rat pancreas, luciferase assay; type: in vivo; conditions: 64 μg pCMV.FOX.Luc-2 in 100 μL into bile duct, 48 hours, four trials; ZnCl2 absent or 1.8 mM
Protocol: Male Sprague-Dawley rats (weighing 260-280 g) were fasted the night prior to treatment. Care was taken to ensure that this procedure was conducted under sterile conditions. After anesthesia (see above) and laparotomy, the distal end of the bile duct (at the level of the duodenum) was ligated, the proximal end of the pancreas (at the porta hepatis level) was temporary blocked by a ligature, a PE-10 tubing was inserted through an incision of the bile duct near the duodenum. 0.1 ml of the selected nucleic acid/transition metal enhancer mixture was injected in a retrograde manner into the duct. Successful injection was confirmed by visible swelling of the gland. For administration to the liver, the proximal portion of the bile duct (prior to its entry into pancreatic tissue) was injected. After DNA delivery, a by-pass operation was done by directly introducing the bile flow to duodenum through the exterior end of the PE-10 tubing. After carefully ensuring the ligatures were secure, 1 ml of ampicillin (15 mg/ml) was injected into the peritoneal cavity and the incision was closed in one layer, combining fascia and skin with 3-0 silk suture. The closed incision was washed with dilute ethanol and the animal was monitored under a heat lamp until it was fully awake and ambulatory. The […] were terminated 48 hours after treatment. […]

[Cl-].[Cl-].[Zn+2] [ZnCl2, zinc chloride]
human growth hormone protein expression, Average (rat submandibular gland; [Zn] 0.125 mM): 505.6361 | human growth hormone protein expression, Average (rat submandibular gland; [Zn] 0.25 mM): 464.7687 | human growth hormone protein expression, Trial 1 to Trial 8 (rat submandibular gland; [Zn] 0.125 mM): 452.1 and 360.8 and 261.7 and 355.7 and 517.2 and 575.6 and 943.5 and 1084 | human growth hormone protein expression, Trial 1 to Trial 8 (rat submandibular gland; [Zn] 0.25 mM): 857.731 and 753.3 and 272.6 and 315.3 and 604.3 and 449.9 | enhancement of in vivo transfection compared to cationic liposome/nucleic acid mixture not containing zinc (rat submandibular gland; rat submandibular gland): at least two | average luciferase activity (rat pancreas): 22028 relative luciferase light units per 10 mg of pancreatic tissue
